# Read-outs that look alike come from different tables or passages of the source.
# Key:
# 134 cancer cell lines [1] = tested on: 134 cancer cell lines
# AP-1060 (ETV6-NTRK3) = assay: Cell viability assay; details: read-out: IC50 in cell proliferation assay
# 134 cancer cell lines [2] = assay: Cell viability assay (ATPlite, 72 hours), IC50 on cancer cell line panel
compound,measurement,setting,value
CCCS(=O)(=O)Nc1ccc(F)c(C(=O)c2c[nH]c3ncc(-c4ccc(Cl)cc4)cc23)c1F [vemurafenib],IC50,134 cancer cell lines [1],> 31.6 µM
same,IC50,AP-1060 (ETV6-NTRK3),31.6 µM
same,IC50,"134 cancer cell lines [2]; HEC-6, read-out: IC50 in cell proliferation assay, HEC-6 cell line (EGFR p.A289V)",> 31.6 µM
same,IC50,"134 cancer cell lines [2]; Homo sapiens, 769-P, read-out: IC50 in cell proliferation assay, cell line 769-P",> 31.6 µM
same,IC50,"134 cancer cell lines [2]; Homo sapiens, 786-0, read-out: IC50 in cell proliferation assay, cell line 786-O",25.1 µM
same,IC50,"134 cancer cell lines [2]; Homo sapiens, A 172, read-out: IC50 in cell proliferation assay, cell line A-172",> 31.6 µM
same,IC50,"134 cancer cell lines [2]; Homo sapiens, A204, read-out: IC50 in cell proliferation assay, cell line A-204",> 31.6 µM
same,IC50,"134 cancer cell lines [2]; Homo sapiens, A498, read-out: IC50 in cell proliferation assay, cell line A-498",21.6 µM
same,IC50,"134 cancer cell lines [2]; Homo sapiens, A549, read-out: IC50 in cell proliferation assay, cell line A-549",31.2 µM
same,IC50,"134 cancer cell lines [2]; Homo sapiens, A704, read-out: IC50 in cell proliferation assay, cell line A-704",> 31.6 µM
same,IC50,"134 cancer cell lines [2]; Homo sapiens, A-375, read-out: IC50 in cell proliferation assay, cell line A-375 (BRAF p.V600E)",1.76 µM
same,IC50,"134 cancer cell lines [2]; Homo sapiens, A-427, read-out: IC50 in cell proliferation assay, cell line A-427",> 31.6 µM
same,IC50,"134 cancer cell lines [2]; Homo sapiens, ACHN, read-out: IC50 in cell proliferation assay, cell line ACHN",20.1 µM
same,IC50,"134 cancer cell lines [2]; Homo sapiens, AN3-CA, read-out: IC50 in cell proliferation assay, cell line AN3-CA (FGFR2 p.N549K)",> 31.6 µM
same,IC50,"134 cancer cell lines [2]; Homo sapiens, ASPC1, read-out: IC50 in cell proliferation assay, cell line AsPC-1",> 31.6 µM
same,IC50,"134 cancer cell lines [2]; Homo sapiens, AU565, read-out: IC50 in cell proliferation assay, cell line AU565 (ERBB2 amplification)",> 31.6 µM
same,IC50,"134 cancer cell lines [2]; Homo sapiens, BT-20, read-out: IC50 in cell proliferation assay, cell line BT-20",> 31.6 µM
same,IC50,"134 cancer cell lines [2]; Homo sapiens, BT-474, read-out: IC50 in cell proliferation assay, cell line BT-474 (ERBB2 amplification)",> 31.6 µM
same,IC50,"134 cancer cell lines [2]; Homo sapiens, BT-549, read-out: IC50 in cell proliferation assay, cell line BT-549",31.2 µM
same,IC50,"134 cancer cell lines [2]; Homo sapiens, BXPC-3, read-out: IC50 in cell proliferation assay, cell line BxPC-3",28.2 µM
same,IC50,"134 cancer cell lines [2]; Homo sapiens, C-33-A, read-out: IC50 in cell proliferation assay, cell line C-33 A",> 31.6 µM
same,IC50,"134 cancer cell lines [2]; Homo sapiens, CAL-27, read-out: IC50 in cell proliferation assay, cell line CAL-27",> 31.6 µM
same,IC50,"134 cancer cell lines [2]; Homo sapiens, CCF-STTG1, read-out: IC50 in cell proliferation assay, cell line CCF-STTG1",> 31.6 µM
same,IC50,"134 cancer cell lines [2]; Homo sapiens, CCRF-CEM, read-out: IC50 in cell proliferation assay, cell line CCRF-CEM",27.6 µM
same,IC50,"134 cancer cell lines [2]; Homo sapiens, COLO 205, read-out: IC50 in cell proliferation assay, cell line COLO 205 (BRAF p.V600E)",0.744 µM
same,IC50,"134 cancer cell lines [2]; Homo sapiens, COLO-829, read-out: IC50 in cell proliferation assay, cell line COLO 829 (BRAF p.V600E)",2.22 µM
same,IC50,"134 cancer cell lines [2]; Homo sapiens, DLD-1, read-out: IC50 in cell proliferation assay, cell line DLD-1",> 31.6 µM
same,IC50,"134 cancer cell lines [2]; Homo sapiens, DU-4475, read-out: IC50 in cell proliferation assay, cell line DU4475 (BRAF p.V600E)",1.83 µM
same,IC50,"134 cancer cell lines [2]; Homo sapiens, Daoy, read-out: IC50 in cell proliferation assay, cell line Daoy",> 31.6 µM
same,IC50,"134 cancer cell lines [2]; Homo sapiens, DoTc2-4510, read-out: IC50 in cell proliferation assay, cell line DoTc2 4510",> 31.6 µM
same,IC50,"134 cancer cell lines [2]; Homo sapiens, EOL1, read-out: IC50 in cell proliferation assay, cell line EoL-1 (FIP1L1-PDGFRA)",1.62 µM
same,IC50,"134 cancer cell lines [2]; Homo sapiens, FaDu, read-out: IC50 in cell proliferation assay, cell line FaDu",> 31.6 µM
same,IC50,"134 cancer cell lines [2]; Homo sapiens, G-361, read-out: IC50 in cell proliferation assay, cell line G-361 (BRAF p.V600E)",3.25 µM
same,IC50,"134 cancer cell lines [2]; Homo sapiens, HCC827, read-out: IC50 in cell proliferation assay, cell line HCC827 (EGFR exon19del)",> 31.6 µM
same,IC50,"134 cancer cell lines [2]; Homo sapiens, HCC4006, read-out: IC50 in cell proliferation assay, cell line HCC4006 (EGFR exon19del)",> 31.6 µM
same,IC50,"134 cancer cell lines [2]; Homo sapiens, HCT-15, read-out: IC50 in cell proliferation assay, cell line HCT 15",> 31.6 µM
same,IC50,"134 cancer cell lines [2]; Homo sapiens, HCT-116, read-out: IC50 in cell proliferation assay, cell line HCT 116",> 31.6 µM
same,IC50,"134 cancer cell lines [2]; Homo sapiens, HEC-1, read-out: IC50 in cell proliferation assay, HEC-1 cell line",> 31.6 µM
same,IC50,"134 cancer cell lines [2]; Homo sapiens, HEC-1B, read-out: IC50 in cell proliferation assay, HEC-1-B cell line (EGFR p.A864V)",> 31.6 µM
same,IC50,"134 cancer cell lines [2]; Homo sapiens, HL-60, read-out: IC50 in cell proliferation assay, HL-60 cell line",> 31.6 µM
same,IC50,"134 cancer cell lines [2]; Homo sapiens, HT, read-out: IC50 in cell proliferation assay, HT cell line",> 31.6 µM
same,IC50,"134 cancer cell lines [2]; Homo sapiens, HT-1080, read-out: IC50 in cell proliferation assay, HT-1080 cell line",9.43 µM
same,IC50,"134 cancer cell lines [2]; Homo sapiens, Hs746T, read-out: IC50 in cell proliferation assay, Hs 746.T cell line (MET exon14skip + amplification)",> 31.6 µM
same,IC50,"134 cancer cell lines [2]; Homo sapiens, Hs-578T, read-out: IC50 in cell proliferation assay, Hs 578T cell line",30.6 µM
same,IC50,"134 cancer cell lines [2]; Homo sapiens, HuTu80, read-out: IC50 in cell proliferation assay, HuTu 80 cell line",> 31.6 µM
same,IC50,"134 cancer cell lines [2]; Homo sapiens, J82, read-out: IC50 in cell proliferation assay, J82 cell line",> 31.6 µM
same,IC50,"134 cancer cell lines [2]; Homo sapiens, Jurkat E6.1, read-out: IC50 in cell proliferation assay, Jurkat E6.1 cell line",28.3 µM
same,IC50,"134 cancer cell lines [2]; Homo sapiens, K562, read-out: IC50 in cell proliferation assay, K-562 cell line",> 31.6 µM
same,IC50,"134 cancer cell lines [2]; Homo sapiens, KATO III, read-out: IC50 in cell proliferation assay, KATO III cell line (FGFR2 amplification)",20.7 µM
same,IC50,"134 cancer cell lines [2]; Homo sapiens, KG-1, read-out: IC50 in cell proliferation assay, KG-1 cell line (FGFR1OP2-FGFR1)",> 31.6 µM
same,IC50,"134 cancer cell lines [2]; Homo sapiens, KLE, read-out: IC50 in cell proliferation assay, KLE cell line",> 31.6 µM
same,IC50,"134 cancer cell lines [2]; Homo sapiens, KMS-11, read-out: IC50 in cell proliferation assay, KMS-11 cell line (FGFR3 p.Y373C)",29.5 µM
same,IC50,"134 cancer cell lines [2]; Homo sapiens, KU812, read-out: IC50 in cell proliferation assay, Ku812 cell line",28.5 µM
same,IC50,"134 cancer cell lines [2]; Homo sapiens, Kasumi 1, read-out: IC50 in cell proliferation assay, Kasumi-1 cell line (KIT p.N822K)",> 31.6 µM
same,IC50,"134 cancer cell lines [2]; Homo sapiens, LC-2-ad, read-out: IC50 in cell proliferation assay, LC-2/ad cell line (CCDC6-RET)",> 31.6 µM
same,IC50,"134 cancer cell lines [2]; Homo sapiens, LNCaP-Clone-FGC, read-out: IC50 in cell proliferation assay, LNCaP clone FGC cell line",> 31.6 µM
same,IC50,"134 cancer cell lines [2]; Homo sapiens, LS174T, read-out: IC50 in cell proliferation assay, LS174T cell line",> 31.6 µM
same,IC50,"134 cancer cell lines [2]; Homo sapiens, LS-411N, read-out: IC50 in cell proliferation assay, LS411N cell line (BRAF p.V600E)",1.28 µM
same,IC50,"134 cancer cell lines [2]; Homo sapiens, LoVo, read-out: IC50 in cell proliferation assay, LoVo cell line",> 31.6 µM
same,IC50,"134 cancer cell lines [2]; Homo sapiens, MCF7, read-out: IC50 in cell proliferation assay, MCF-7 cell line",> 31.6 µM
same,IC50,"134 cancer cell lines [2]; Homo sapiens, MDA-MB-231, read-out: IC50 in cell proliferation assay, MDA-MB-231 cell line",> 31.6 µM
same,IC50,"134 cancer cell lines [2]; Homo sapiens, MDA-MB-453, read-out: IC50 in cell proliferation assay, MDA-MB-453 cell line",> 31.6 µM
same,IC50,"134 cancer cell lines [2]; Homo sapiens, MDA-MB-468, read-out: IC50 in cell proliferation assay, MDA-MB-468 cell line",> 31.6 µM
same,IC50,"134 cancer cell lines [2]; Homo sapiens, MG-63, read-out: IC50 in cell proliferation assay, MG-63 cell line",> 31.6 µM
same,IC50,"134 cancer cell lines [2]; Homo sapiens, MIA PaCa-2, read-out: IC50 in cell proliferation assay, MIA PaCa-2 cell line",> 31.6 µM
same,IC50,"134 cancer cell lines [2]; Homo sapiens, MKN-45, read-out: IC50 in cell proliferation assay, MKN45 cell line (MET amplification)",> 31.6 µM

# Source: article PMC9516332 (Frontiers in Oncology, 2022)
